Experimental data taken from a melting point compilation (Tetko et al.; mined from patent text by program, amines drawn as free bases though some values may be those of a salt).

| Structure (SMILES) | melting point |
| --- | --- |
| COc1ccc2c(c1)CC[C@H](CN1CCC3(CC1)C(=O)NCN3c1ccccc1)[C@@H]2O (relative stereo) | 182 to 183 °C |
| O=C(CCCC(=O)C(F)(F)F)c1cccc(OCc2ccccc2)c1 | 75.3 to 80.3 °C |
| NC(=NO)c1ccc(C(=O)O)cn1 | > 300 °C |
| N#CC1=C2C=CC=c3ccccc3=C2CC=C1 | 109 to 111 °C |
| Cc1ccc2c(c1Cl)C(=O)N(C(C)(C(N)=O)C(C)C)C2=O (stereo not drawn) | 215 to 218 °C |
| NCCCCCCCCCCN1CCN(CC(=O)N2c3ccccc3C(=O)Nc3cccnc32)CC1 | 95 to 97 °C |
| CCOC(=O)c1coc(-c2ccc(CCl)cc2)n1 | 115 to 117 °C |
| CCCc1nn(CC)c2c(=O)n(CCOc3cccc(OC(C)(C)C(=O)O)c3)c(C)nc12 | 147 to 149 °C |
| CCC(=O)c1ccc2c(c1)OCC(=O)N2 | 174 to 176 °C |
| O=C(NC(=NCCCOc1ccccc1)Oc1ccccc1)c1ccccc1 | 75 °C |
| Nc1cc(Cl)cc(Cl)c1C(=O)NCc1cccc(Cl)c1 | 167 to 171 °C |
| Cc1cc(O)c(O)cc1C | 71 to 72 °C |
| COc1cccc2c1OC(C)C2=O (stereo not drawn) | 60 to 61 °C |
| COC(=O)C1CCC2ON=C(c3ccc(Cl)cc3)C2CC1 (stereo not drawn) | 150 to 185 °C |
| CN1C(=O)C2(CCNCC2)c2ccccc21 | 146 to 151 °C |
| CC(=O)CCn1[nH]c(=O)c2ccccc2c1=O | 152 to 153 °C |
| C=CC(=O)OC(COc1ccc(C(=O)c2ccccc2)c(O)c1)COc1ccc(C(=O)c2ccccc2)c(O)c1 | 98 to 100 °C |
| O=C(O)C1(CC2CCCC2)CC1 | 42 to 45 °C |
| C1=CNC=c2ccccc2=C1 | 128 °C |
| CCCCc1nc(SCCOC(C)=O)c(C(=O)OCC)[nH]1 | 68 °C |
| CC(=O)c1cn(C)cc(-c2cccc(Cl)c2)c1=O | 175 to 177 °C |
| Cc1cccc(Cl)c1N1CCCN(C2CCC2)C1=S | 89 to 91 °C |
| O=C(O)c1cc2c(cc1C(=O)O)COCC2 | 179 to 181 °C |

| Structure (SMILES) | melting point |
| --- | --- |
| O=C(NC(CS)Cc1ccccc1)N1C=CC=CC1 (single isomer, unassigned; (+)) | 115 to 117 °C |
| NNc1ncccc1-c1cccnc1 | 104 to 107 °C |
| CCCCCOC(=O)c1cc(O)nn1-c1ncccc1Cl | 172 to 173 °C |
| Clc1ccccc1C=C(CBr)c1ccccc1 | 78 °C |
| CCCNC(=O)Nc1ccc(C(=O)c2c(C)c(OCCOC)c3ccccn23)cc1C(=O)OC | 125 °C |
| CSc1ccc(C(=N)Nc2ccc(F)cc2)cc1 | 145 to 147 °C |
| N#CCc1ccc([N+](=O)[O-])c2[nH]ncc12 | 198 to 200 °C |
| CC(C)c1n[nH]c2c(O)ncnc12 | 302 to 304 °C |
| CC(=O)C1=CCC2C3CCC4CC(O)CCC4(C)C3C(OC(=O)CCl)CC12C (stereo not drawn) | 160 to 162 °C |
| Cn1c(=O)oc2cc([N+](=O)[O-])ccc21 | 183 to 185 °C |
| COc1cc(Nc2c(C#N)cnc3cc(Br)c(OC)cc23)c(Cl)cc1Cl | > 250 °C |
| CCOc1nc(N)nc2c1CCC2 | 134 to 135 °C |
| Cc1nc(Cl)c(C)c(Cl)n1 | 46 to 47 °C |
| CCCCOC(=O)C=Cc1ccc(C=CC(=O)OCCCC)c2nsnc12 | 90 to 94 °C |
| O=C(O)CC(CCCCNS(=O)(=O)c1ccc(Cl)cc1)CCCc1cccnc1 (stereo not drawn) | 95 to 97 °C |
| CCOC(=O)c1oc2cccc(OC)c2c1C | 67 to 69 °C |
| O=C(CO/N=C(\C(=O)O)c1ccco1)NOC(c1ccccc1)c1ccccc1 | 138 to 140 °C |
| N#CC1(C(O)(Cn2cncn2)c2ccccc2)CC1 (stereo not drawn) | 103 to 105 °C |
| COCCOc1cc2ncnc(NC3=CC(=O)C(Br)=CC3=O)c2cc1OC | 200 to 210 °C |
| CCOC(=O)c1c(C)nc2c(c1N)c1ccccc1n2C | 79 to 80 °C |
| Cc1ccc2sc3cc(F)ccc3c(=O)c2c1 | 159 to 165 °C |
| CN(C)SN(C)C(=O)ON=C1SCC(=O)NC1(C)C | 165 to 167 °C |

Now from value to compound:

| melting point | Structure (SMILES) |
| --- | --- |
| 134 to 135 °C | CCOC(=O)c1cc2c(C)c(C)cc(N(CC)S(=O)(=O)c3cccs3)c2[nH]1 |
| 163 to 165 °C | CC(C)(C)C(=O)Oc1c(N2CCCC2)c(=O)n(-c2ccccc2)c2ncccc12 |
| 309 to 311 °C | Cn1cc(C2=C(c3c4n(c5ccccc35)CCC(C#N)C4)C(=O)OC2=O)c2ccccc21 (stereo not drawn) |
| 160 to 165 °C | CC(C)(C)OC(=O)N[C@@H]1CN(c2ccccc2)c2ccccc2NC1=O |
| 92 to 101 °C | COc1c(Nc2ncc3ccc(-c4ccccc4N(C)S(C)(=O)=O)n3n2)cccc1C1CCN(C)CC1 |
| 157 to 159 °C | O=C1NCC[C@@H](c2ccc(Oc3ccccc3)cc2)[C@@H]1c1ccccc1 (relative stereo) |
| 164 to 166 °C | CCCCN(C)CCc1ccc(Nc2ncc3c(n2)-c2ccccc2[C@H](c2ccc(F)cc2)C3)cc1 |
| 177 to 179 °C | CS(=O)(=O)Nc1nc(CN2CCN(C(c3ccccc3)c3ccccc3)CC2)cs1 |
| 150 to 151 °C | Cc1c(-c2ccccn2)c(N2CC[C@H](N(C)C)C2)c2oc(C3CC3)nc2c1C#N |
| 140 °C | C[C@@H](Nc1ncnc2[nH]c(-c3ccc(CNC(=O)CCN4CCCCC4)cc3)cc12)c1ccccc1 |
| 109 °C | CCN(CC)CCNC(=O)c1ccccc1NC(=O)COc1ccc(Cl)cc1 |
| 105 to 106 °C | CN(C)C(=O)c1ccc(CNC(=O)C2Cc3ccccc3N2S(=O)(=O)c2ccc(-c3ccccc3C(F)(F)F)cc2)cc1 (stereo not drawn) |
| 155 °C | C#Cc1nc(-c2ccco2)c2ncn(Cc3ccc(OC)cc3)c2n1 |
| 179 to 180 °C | CC(=O)Nc1cnc(-c2ccccc2)nc1Cl |
| 157 to 159 °C | Cc1cccc(C2(O)CCN(CC3CCc4ccccc4C3=O)CC2)c1 (stereo not drawn) |
| 126 to 127 °C | CC(C)(C)c1ccc(N(c2ccccc2)c2ccc(-c3ccc(Nc4ccccc4)cc3)cc2)cc1 |
| 136 to 138 °C | OC(CNCCC1c2ccccc2COc2ccccc21)COc1ccccc1 (stereo not drawn) |
| 240 °C | CSc1ccc(N2C(=O)N(CC(=O)Nc3c(C(C)C)cccc3C(C)C)C(=O)C23CCOCC3)cc1 |
| 116 to 117 °C | COc1ccc(C2CCC(=O)N(CCN(C)C)c3ccccc3C2=O)cc1 (stereo not drawn) |
| 95 to 100 °C | Cc1noc(NS(=O)(=O)c2ccccc2-c2ccc(-c3ncco3)cc2CN2OCC(C)(C)C2=O)c1C |
| 192 to 195 °C | Cc1ccccc1-c1cnc2c(C(F)(F)F)cccc2c1-c1cccc(NC(=O)Nc2ccccc2)c1 |
| 98 to 100 °C | CN(C)C(=O)C(=O)N1CN(C(=O)c2c(F)cccc2F)C(=O)N(c2ccc(Oc3ccc(C(F)(F)F)cc3Cl)cc2F)C1 |
| 220 °C | COc1cc(OC)c2c(c1)c(-c1cc3cccnc3[nH]1)cn2C |
| > 275 °C | CN1C(=O)CCC(C)(C)c2cc(NC(=O)c3ccc(C(=O)O)cc3)ccc21 |
| 216 to 217 °C | CN(c1ccc(O)cc1)c1nc2cc(Cl)ccc2o1 |
| 169 to 170 °C | O=C(O)CCCCN(C(=O)c1ccc(Cl)cc1)c1cccc2ccccc12 |
| 193 to 195 °C | COc1ccc2c3c1c(C)c(-c1ccc(O)cc1)n3CC(CCN1CCN(c3cc(C)ccn3)CC1)O2 (stereo not drawn) |
| 125 to 127 °C | CCCOc1ccc(F)c2c(=O)c3ccccc3sc12 |
